Results from the supplement of paper PMC10307832.

Key:
Assay in all cases: relative viability (nuclei count vs DMSO), 5 days (fraction); higher = more cells survive
[1] = compound: C[C@@H](N)c1ccc(C(=O)Nc2ccnc3[nH]ccc23)cc1 + Nc1nc2[nH]cc(CCc3ccc(C(=O)N[C@@H](CCC(=O)O)C(=O)O)cc3)c2c(=O)[nH]1 [Pemetrexed] (partner 0.2 µM)
Summary of the method: (§1)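 A single step with final 0.05% Triton X-100, 1% formaldehyde and 1 ug/ml Hoechst fixed the cells and stained nuclei 5 days after treatment. Lung cancer cell lines in 1536-well plates had been treated by pin tool the day after seeding with one drug alone or a fixed anchor-drug dose plus five library-drug doses (not always all listed) in √10 steps, and nuclei were counted on 4× images. Relative viability is the ratio of nuclei in treated wells to nuclei in vehicle wells, taken as the median of duplicate plates.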

Tanzisertib + Foretinib = compound: O[C@H]1CC[C@H](Nc2ncc3nc(Nc4c(F)cc(F)cc4F)n([C@H]4CCOC4)c3n2)CC1 [Tanzisertib] + COc1cc2c(Oc3ccc(NC(=O)C4(C(=O)Nc5ccc(F)cc5)CC4)cc3F)ccnc2cc1OCCCN1CCOCC1 [Foretinib] (partner 0.25 µM)
Summary of the method: as §1

[2] = compound: C[C@@H](N)c1ccc(C(=O)Nc2ccnc3[nH]ccc23)cc1 + COc1cccc2cc(-c3nc([C@H]4CC[C@H](C(=O)O)CC4)n4ncnc(N)c34)[nH]c12 [OSI-027] (partner 0.5 µM)
Summary of the method: as §1

Tanzisertib + Phenformin = compound: O[C@H]1CC[C@H](Nc2ncc3nc(Nc4c(F)cc(F)cc4F)n([C@H]4CCOC4)c3n2)CC1 [Tanzisertib] + N=C(N)NC(=N)NCCc1ccccc1 [Phenformin] (partner 250 µM)
Summary of the method: as §1

## UMC-11
[1]; first compound 0.04 µM
  relative viability: 0.915
[1]; first compound 0.1265 µM
  relative viability: 0.889
[1]; first compound 0.4 µM
  relative viability: 0.955
[1]; first compound 1.265 µM
  relative viability: 0.764
[1]; first compound 4 µM
  relative viability: 0.498
Tanzisertib + Foretinib; first compound 0.08 µM
  relative viability: 0.976
Tanzisertib + Foretinib; first compound 0.253 µM
  relative viability: 1.14
Tanzisertib + Foretinib; first compound 0.8 µM
  relative viability: 0.962
Tanzisertib + Foretinib; first compound 2.53 µM
  relative viability: 1.01
Tanzisertib + Foretinib; first compound 8 µM
  relative viability: 1.18
[2]; first compound 0.04 µM
  relative viability: 0.583
[2]; first compound 0.1265 µM
  relative viability: 0.565
[2]; first compound 0.4 µM
  relative viability: 0.555
[2]; first compound 1.265 µM
  relative viability: 0.453
[2]; first compound 4 µM
  relative viability: 0.459
Tanzisertib + Phenformin; first compound 0.08 µM
  relative viability: 0.339
Tanzisertib + Phenformin; first compound 0.253 µM
  relative viability: 0.35
Tanzisertib + Phenformin; first compound 0.8 µM
  relative viability: 0.342
Tanzisertib + Phenformin; first compound 2.53 µM
  relative viability: 0.351
Tanzisertib + Phenformin; first compound 8 µM
  relative viability: 0.37
